Data taken from ChEMBL document CHEMBL3885861, “Open TG-GATES”.

Organism: Rattus norvegicus
Experiment: Open TG-GATES - Regimen: Single
Type: toxicity, organism-based, Sprague-Dawley
Parameters: regimen Single, gender Male, age 6 weeks
Conditions: in vivo, po, route gavage; for APTT / Bas / Eos / Fbg / Hb / Ht / Lym / MCH / MCHC / MCV / Mono / Neu / PT / Plat / RBC / Ret / WBC: tissue Blood; for KIDNEY_L / KIDNEY_R / KIDNEY_TOTAL: tissue Kidney; for LIVER: tissue Liver; for ALP / ALT / AST / CRE / DBIL / GLC / IP / K / LDH / Na / PL / RALB / TBIL / TC / TP / gamma-GTP: tissue Plasma
[1] = 300 mg/kg, 3 h, dose level Middle
[2] = 300 mg/kg, 6 h, dose level Middle
[3] = 300 mg/kg, 9 h, dose level Middle
[4] = 300 mg/kg, 24 h, dose level Middle
[5] = 1000 mg/kg, 3 h, dose level High
[6] = 1000 mg/kg, 6 h, dose level High
[7] = 1000 mg/kg, 9 h, dose level High
[8] = 1000 mg/kg, 24 h, dose level High

SMILES: Clc1ccccc1CN1CCc2sccc2C1 [TICLOPIDINE]
- TERMINAL_BW [1]: 211.8 g
- APTT [1]: 19.5 s
- Bas [1]: 0%
- Eos [1]: 1%
- Fbg [1]: 220.8 mg/dL
- Hb [1]: 13.1 g/dL
- Ht [1]: 37.1%
- Lym [1]: 73.4%
- MCH [1]: 21.8 pg
- MCHC [1]: 35.3%
- MCV [1]: 61.6 fL
- Mono [1]: 2.8%
- Neu [1]: 21.6%
- PT [1]: 12.2 s
- Plat [1]: 124.1 x10_4/uL
- RBC [1]: 602.2 x10_4/ul
- Ret [1]: 8.4%
- WBC [1]: 73.9 x10_2/uL
- KIDNEY_L [1]: 0.9 g
- KIDNEY_R [1]: 1 g
- KIDNEY_TOTAL [1]: 1.9 g
- LIVER [1]: 9 g
- ALP [1]: 999 IU/L
- ALT [1]: 36.2 IU/L
- AST [1]: 74 IU/L
- CRE [1]: 0.4 mg/dL
- DBIL [1]: 0.078 mg/dL
- GLC [1]: 194.2 mg/dL
- IP [1]: 10.5 mg/dL
- K [1]: 3.7 meq/L
- LDH [1]: 161.4 IU/L
- Na [1]: 141 meq/L
- PL [1]: 129.2 mg/dL
- RALB [1]: 3.3 g/dL
- TBIL [1]: 0.1 mg/dL
- TC [1]: 72.6 mg/dL
- TP [1]: 5.4 g/dL
- gamma-GTP [1]: 0.8 IU/L
- TERMINAL_BW [2]: 209.7 g
- APTT [2]: 18.1 s
- Bas [2]: 0.2%
- Eos [2]: 0.8%
- Fbg [2]: 226.8 mg/dL
- Hb [2]: 13.5 g/dL
- Ht [2]: 39.1%
- Lym [2]: 77%
- MCH [2]: 21.1 pg
- MCHC [2]: 34.5%
- MCV [2]: 61.3 fL
- Mono [2]: 2.4%
- Neu [2]: 18.4%
- PT [2]: 12.1 s
- Plat [2]: 131 x10_4/uL
- RBC [2]: 637.6 x10_4/ul
- Ret [2]: 7.8%
- WBC [2]: 76.9 x10_2/uL
- KIDNEY_L [2]: 1 g
- KIDNEY_R [2]: 1 g
- KIDNEY_TOTAL [2]: 1.9 g
- LIVER [2]: 9.1 g
- ALP [2]: 909.6 IU/L
- ALT [2]: 34 IU/L
- AST [2]: 74.6 IU/L
- CRE [2]: 0.4 mg/dL
- DBIL [2]: 0.078 mg/dL
- GLC [2]: 192 mg/dL
- IP [2]: 10 mg/dL
- K [2]: 3.9 meq/L
- LDH [2]: 213 IU/L
- Na [2]: 141 meq/L
- PL [2]: 134 mg/dL
- RALB [2]: 3.4 g/dL
- TBIL [2]: 0.1 mg/dL
- TC [2]: 76.2 mg/dL
- TP [2]: 5.5 g/dL
- gamma-GTP [2]: 1.2 IU/L
- TERMINAL_BW [3]: 208.6 g
- APTT [3]: 18.8 s
- Bas [3]: 0.2%
- Eos [3]: 1%
- Fbg [3]: 226.8 mg/dL
- Hb [3]: 13.3 g/dL
- Ht [3]: 37.6%
- Lym [3]: 76%
- MCH [3]: 21.4 pg
- MCHC [3]: 35.3%
- MCV [3]: 60.7 fL
- Mono [3]: 2%
- Neu [3]: 20.2%
- PT [3]: 12.7 s
- Plat [3]: 132.7 x10_4/uL
- RBC [3]: 621.4 x10_4/ul
- Ret [3]: 7.2%
- WBC [3]: 64 x10_2/uL
- KIDNEY_L [3]: 0.9 g
- KIDNEY_R [3]: 1 g
- KIDNEY_TOTAL [3]: 1.9 g
- LIVER [3]: 8.3 g
- ALP [3]: 859.4 IU/L
- ALT [3]: 31.2 IU/L
- AST [3]: 65.4 IU/L
- CRE [3]: 0.4 mg/dL
- DBIL [3]: 0.072 mg/dL
- GLC [3]: 197 mg/dL
- IP [3]: 9.8 mg/dL
- K [3]: 3.9 meq/L
- LDH [3]: 129.6 IU/L
- Na [3]: 142 meq/L
- PL [3]: 129 mg/dL
- RALB [3]: 3.3 g/dL
- TBIL [3]: 0.1 mg/dL
- TC [3]: 69.8 mg/dL
- TP [3]: 5.5 g/dL
- gamma-GTP [3]: 1.2 IU/L
- TERMINAL_BW [4]: 212.9 g
- APTT [4]: 19.8 s
- Bas [4]: 0.4%
- Eos [4]: 1%
- Fbg [4]: 228.2 mg/dL
- Hb [4]: 14.1 g/dL
- Ht [4]: 39.5%
- Lym [4]: 80.8%
- MCH [4]: 22.1 pg
- MCHC [4]: 35.6%
- MCV [4]: 62.2 fL
- Mono [4]: 2.4%
- Neu [4]: 14.6%
- PT [4]: 12.1 s
- Plat [4]: 128.1 x10_4/uL
- RBC [4]: 635.4 x10_4/ul
- Ret [4]: 6.1%
- WBC [4]: 76.1 x10_2/uL
- KIDNEY_L [4]: 1 g
- KIDNEY_R [4]: 1 g
- KIDNEY_TOTAL [4]: 2 g
- LIVER [4]: 9.5 g
- ALP [4]: 1118.8 IU/L
- ALT [4]: 35.2 IU/L
- AST [4]: 66.6 IU/L
- CRE [4]: 0.4 mg/dL
- DBIL [4]: 0.078 mg/dL
- GLC [4]: 182.2 mg/dL
- IP [4]: 8.7 mg/dL
- K [4]: 4 meq/L
- LDH [4]: 120 IU/L
- Na [4]: 142 meq/L
- PL [4]: 146.6 mg/dL
- RALB [4]: 3.5 g/dL
- TBIL [4]: 0.1 mg/dL
- TC [4]: 83.4 mg/dL
- TP [4]: 5.6 g/dL
- gamma-GTP [4]: 1 IU/L
- TERMINAL_BW [5]: 212.3 g
- APTT [5]: 17.9 s
- Bas [5]: 0.2%
- Eos [5]: 1%
- Fbg [5]: 220.2 mg/dL
- Hb [5]: 13 g/dL
- Ht [5]: 36.9%
- Lym [5]: 73.2%
- MCH [5]: 21.4 pg
- MCHC [5]: 35.3%
- MCV [5]: 60.7 fL
- Mono [5]: 2.8%
- Neu [5]: 22.4%
- PT [5]: 11.8 s
- Plat [5]: 128.4 x10_4/uL
- RBC [5]: 609.4 x10_4/ul
- Ret [5]: 8.6%
- WBC [5]: 61.1 x10_2/uL
- KIDNEY_L [5]: 0.9 g
- KIDNEY_R [5]: 0.9 g
- KIDNEY_TOTAL [5]: 1.9 g
- LIVER [5]: 9 g
- ALP [5]: 991.8 IU/L
- ALT [5]: 36 IU/L
- AST [5]: 71.4 IU/L
- CRE [5]: 0.4 mg/dL
- DBIL [5]: 0.076 mg/dL
- GLC [5]: 196.4 mg/dL
- IP [5]: 10.7 mg/dL
- K [5]: 3.8 meq/L
- LDH [5]: 147.4 IU/L
- Na [5]: 140.4 meq/L
- PL [5]: 122 mg/dL
- RALB [5]: 3.3 g/dL
- TBIL [5]: 0.1 mg/dL
- TC [5]: 69.8 mg/dL
- TP [5]: 5.5 g/dL
- gamma-GTP [5]: 0.8 IU/L
- TERMINAL_BW [6]: 211.9 g
- APTT [6]: 19.4 s
- Bas [6]: 0%
- Eos [6]: 1%
- Fbg [6]: 230.6 mg/dL
- Hb [6]: 13.5 g/dL
- Ht [6]: 38.4%
- Lym [6]: 71.8%
- MCH [6]: 21.6 pg
- MCHC [6]: 35.1%
- MCV [6]: 61.4 fL
- Mono [6]: 2%
- Neu [6]: 24.6%
- PT [6]: 12.2 s
- Plat [6]: 118.7 x10_4/uL
- RBC [6]: 625.2 x10_4/ul
- Ret [6]: 8.6%
- WBC [6]: 69.6 x10_2/uL
- KIDNEY_L [6]: 0.9 g
- KIDNEY_R [6]: 0.9 g
- KIDNEY_TOTAL [6]: 1.8 g
- LIVER [6]: 8.7 g
- ALP [6]: 863 IU/L
- ALT [6]: 31 IU/L
- AST [6]: 69 IU/L
- CRE [6]: 0.4 mg/dL
- DBIL [6]: 0.082 mg/dL
- GLC [6]: 190.8 mg/dL
- IP [6]: 9.5 mg/dL
- K [6]: 3.8 meq/L
- LDH [6]: 196.2 IU/L
- Na [6]: 141.8 meq/L
- PL [6]: 149.8 mg/dL
- RALB [6]: 3.4 g/dL
- TBIL [6]: 0.1 mg/dL
- TC [6]: 91 mg/dL
- TP [6]: 5.7 g/dL
- gamma-GTP [6]: 1 IU/L
- TERMINAL_BW [7]: 212.4 g
- APTT [7]: 18.1 s
- Bas [7]: 0.2%
- Eos [7]: 0.6%
- Fbg [7]: 228.8 mg/dL
- Hb [7]: 13.6 g/dL
- Ht [7]: 38.4%
- Lym [7]: 79.6%
- MCH [7]: 21.5 pg
- MCHC [7]: 35.4%
- MCV [7]: 60.9 fL
- Mono [7]: 2.2%
- Neu [7]: 16.4%
- PT [7]: 12.4 s
- Plat [7]: 132.4 x10_4/uL
- RBC [7]: 629.8 x10_4/ul
- Ret [7]: 7.3%
- WBC [7]: 61.3 x10_2/uL
- KIDNEY_L [7]: 1 g
- KIDNEY_R [7]: 0.9 g
- KIDNEY_TOTAL [7]: 1.9 g
- LIVER [7]: 8.8 g
- ALP [7]: 1127.2 IU/L
- ALT [7]: 25.6 IU/L
- AST [7]: 65.2 IU/L
- CRE [7]: 0.4 mg/dL
- DBIL [7]: 0.076 mg/dL
- GLC [7]: 201.4 mg/dL
- IP [7]: 10 mg/dL
- K [7]: 3.8 meq/L
- LDH [7]: 200.8 IU/L
- Na [7]: 142.4 meq/L
- PL [7]: 141.4 mg/dL
- RALB [7]: 3.6 g/dL
- TBIL [7]: 0.1 mg/dL
- TC [7]: 74.8 mg/dL
- TP [7]: 5.6 g/dL
- gamma-GTP [7]: 1 IU/L
- TERMINAL_BW [8]: 208.4 g
- APTT [8]: 22.1 s
- Bas [8]: 0.4%
- Eos [8]: 1.2%
- Fbg [8]: 209 mg/dL
- Hb [8]: 13.9 g/dL
- Ht [8]: 38.9%
- Lym [8]: 80.8%
- MCH [8]: 21.4 pg
- MCHC [8]: 35.7%
- MCV [8]: 59.9 fL
- Mono [8]: 1.8%
- Neu [8]: 15%
- PT [8]: 13.1 s
- Plat [8]: 129.7 x10_4/uL
- RBC [8]: 650 x10_4/ul
- Ret [8]: 5.9%
- WBC [8]: 63.6 x10_2/uL
- KIDNEY_L [8]: 1 g
- KIDNEY_R [8]: 0.9 g
- KIDNEY_TOTAL [8]: 1.9 g
- LIVER [8]: 9.6 g
- ALP [8]: 1071.8 IU/L
- ALT [8]: 27.8 IU/L
- AST [8]: 64.6 IU/L
- CRE [8]: 0.5 mg/dL
- DBIL [8]: 0.084 mg/dL
- GLC [8]: 196.4 mg/dL
- IP [8]: 8.8 mg/dL
- K [8]: 3.8 meq/L
- LDH [8]: 141 IU/L
- Na [8]: 142 meq/L
- PL [8]: 143 mg/dL
- RALB [8]: 3.6 g/dL
- TBIL [8]: 0.1 mg/dL
- TC [8]: 86 mg/dL
- TP [8]: 5.7 g/dL
- gamma-GTP [8]: 1.2 IU/L
